ChEMBL document CHEMBL5584239, “Discovery of novel quinoline scaffold selective estrogen receptor degraders (SERDs) for treatment of ER positive breast cancer with enhanced antiproliferative bioactivity through immunogenic cell death (ICD) effects” (Eur J Med Chem, 2024)
Calls of active or inactive are those of the source. The rule behind the calls is not given here.

Assays:
[1] = test system: Ishikawa; assay: Antiproliferative activity against human Ishikawa cells at 20 uM incubated for 3 days by MTT assay relative to control; type: functional; settings: 72 h, time 3 day
[2] = test system: MCF7; assay: Antiproliferative activity against human MCF7 cells incubated for 5 days by MTT assay; type: functional, cell-based; settings: MCF7, 120 h
[3] = test system: MCF7; assay: Induction of ROS production in human MCF7 cells incubated for 3 to 24 hrs by immunofluorescence analysis; type: functional, cell-based; settings: time 3-24 hrs
[4] = target: T1, Estrogen receptor (Homo sapiens) (UniProt P03372); assay: Induction of estrogen receptor degradation in estradiol-stimulated human MCF7 cells assessed as decrease in PGR mRNA level incubated for 24 hrs by RT-qPCR analysis; type: cell-based; settings: dose 1-10 µM
T1 sequence (whole entry): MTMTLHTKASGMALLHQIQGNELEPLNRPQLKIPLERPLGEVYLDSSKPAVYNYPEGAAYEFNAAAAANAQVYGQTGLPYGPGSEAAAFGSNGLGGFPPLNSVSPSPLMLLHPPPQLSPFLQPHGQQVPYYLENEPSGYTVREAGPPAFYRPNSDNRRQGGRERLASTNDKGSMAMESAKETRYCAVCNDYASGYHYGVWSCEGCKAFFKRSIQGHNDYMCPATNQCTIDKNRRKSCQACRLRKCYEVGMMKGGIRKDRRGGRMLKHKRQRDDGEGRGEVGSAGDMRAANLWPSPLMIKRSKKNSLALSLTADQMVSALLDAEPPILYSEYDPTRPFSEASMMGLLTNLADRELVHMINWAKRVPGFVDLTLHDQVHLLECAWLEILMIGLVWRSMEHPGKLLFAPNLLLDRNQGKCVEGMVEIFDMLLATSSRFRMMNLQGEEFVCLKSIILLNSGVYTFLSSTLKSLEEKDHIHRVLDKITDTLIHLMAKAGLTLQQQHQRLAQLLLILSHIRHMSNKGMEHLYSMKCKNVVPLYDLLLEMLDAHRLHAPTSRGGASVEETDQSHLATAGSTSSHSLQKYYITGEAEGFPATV

[5] = target: T1, Estrogen receptor (Homo sapiens); assay: Induction of estrogen receptor degradation in estradiol-stimulated human MCF7 cells assessed as decrease in GREB1 mRNA level incubated for 24 hrs by RT-qPCR analysis; type: cell-based; settings: dose 1-10 µM
[6] = target: T1, Estrogen receptor (Homo sapiens); assay: Induction of estrogen receptor degradation in estradiol-stimulated human MCF7 cells assessed as decrease in TFF1 mRNA level incubated for 24 hrs by RT-qPCR analysis; type: cell-based; settings: dose 1-10 µM

Structure (SMILES)	inhibition at 20 µM [1] [%]	IC50 [2] [nM]	Activity [3]	Activity [4]	Activity [5]	Activity [6]
O=C(O)/C=C/c1ccc(Oc2c(C(=O)c3ccccc3)cnc3cc(O)ccc23)cc1	11.8	1670				
CCc1ccccc1C(=O)c1cnc2cc(O)ccc2c1Oc1ccc(/C=C/C(=O)O)cc1OC	5.03	14000				
CC(C)c1ccccc1C(=O)c1cnc2cc(O)ccc2c1Oc1ccc(/C=C/C(=O)O)cc1	23.8	580				
O=C(O)/C=C/c1ccc(Oc2c(C(=O)c3cccs3)cnc3cc(O)ccc23)cc1	10.4	7170				
O=C(O)/C=C/c1ccc(Oc2c(C(=O)c3ccc(OC(F)(F)F)cc3)cnc3cc(O)ccc23)cc1	20.4	1360				
CCc1ccccc1C(=O)c1cnc2cc(O)ccc2c1Oc1ccc(/C=C/C(=O)O)cc1F	4.11	670				
C[C@]12CC[C@@H]3c4ccc(O)cc4CC[C@H]3[C@@H]1CC[C@@H]2O			inactive			
Cc1ccc(C(=O)c2cnc3cc(O)ccc3c2Oc2ccc(/C=C/C(=O)O)cc2)c(C)c1	-0.04	450				
CCc1ccccc1C(=O)c1cnc2cc(O)ccc2c1Oc1ccc(/C=C/C(=O)O)cc1C	-6.14	450		Dose-Dependent Effect	Dose-Dependent Effect	Dose-Dependent Effect
O=C(O)/C=C/c1ccc(Oc2c(C(=O)c3cccc(F)c3)cnc3cc(O)ccc23)cc1	26.4	2420				
O=C(O)/C=C/c1ccc(Oc2c(C(=O)c3ccccc3C(F)(F)F)cnc3cc(O)ccc23)cc1	27.5	370				
Cc1cc(F)cc(C)c1C(=O)c1cnc2cc(O)ccc2c1Oc1ccc(/C=C/C(=O)O)cc1	35.8	410				
